T1: trehalose phosphorylase (Thermoanaerobacter brockii, UniProt Q8L164)
T1 construct: recombinant E. coli enzyme (pTTP4) equivalent
T1 sequence (Q8L164 2-774): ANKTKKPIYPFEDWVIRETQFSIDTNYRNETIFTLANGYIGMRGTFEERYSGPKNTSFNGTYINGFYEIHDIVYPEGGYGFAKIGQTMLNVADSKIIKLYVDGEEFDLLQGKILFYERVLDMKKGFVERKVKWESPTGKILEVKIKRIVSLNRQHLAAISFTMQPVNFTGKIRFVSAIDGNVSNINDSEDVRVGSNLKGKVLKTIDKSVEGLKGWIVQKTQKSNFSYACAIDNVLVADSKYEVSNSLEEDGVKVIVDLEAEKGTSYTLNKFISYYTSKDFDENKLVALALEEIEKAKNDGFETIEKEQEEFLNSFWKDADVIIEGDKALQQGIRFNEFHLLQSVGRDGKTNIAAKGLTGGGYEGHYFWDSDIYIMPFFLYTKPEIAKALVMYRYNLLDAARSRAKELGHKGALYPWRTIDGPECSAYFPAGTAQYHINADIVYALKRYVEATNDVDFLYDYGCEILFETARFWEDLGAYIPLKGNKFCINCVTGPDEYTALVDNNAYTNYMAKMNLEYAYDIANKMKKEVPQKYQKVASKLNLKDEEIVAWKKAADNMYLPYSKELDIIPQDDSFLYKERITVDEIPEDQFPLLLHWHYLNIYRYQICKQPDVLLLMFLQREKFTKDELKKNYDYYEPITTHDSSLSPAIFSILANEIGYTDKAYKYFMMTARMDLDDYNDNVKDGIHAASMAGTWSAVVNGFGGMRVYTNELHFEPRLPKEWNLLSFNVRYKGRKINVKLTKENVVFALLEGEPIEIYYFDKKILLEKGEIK

B1: trehalose phosphorylase: novel thermostable trehalose phosphorylase purified from Thermoanaerobium brockii, ATCC 35047; amino acid sequence of SEQ ID NO:4 (protein)
chain: ANKTKKPIYPFEDWVIRETQFSIDTNYRNETIFTLANGYIGMRGTFEERYSGPKNTSFNGTYINGFYEIHDIVYPEGGYGFAKIGQTMLNVADSKIIKLYVDGEEFDLLQGKILFYERVLDMKKGFVERKVKWESPTGKILEVKIKRIVSLNRQHLAAISFTMQPVNFTGKIRFVSAIDGNVSNINDSEDVRVGSNLKGKVLKTIDKSVEGLKGWIVQKTQKSNFSYACAIDNVLVADSKYEVSNSLEEDGVKVIVDLEAEKGTSYTLNKFISYYTSKDFDENKLVALALEEIEKAKNDGFETIEKEQEEFLNSFWKDADVIIEGDKALQQGIRFNEFHLLQSVGRDGKTNIAAKGLTGGGYEGHYFWDSDIYIMPFFLYTKPEIAKALVMYRYNLLDAARSRAKELGHKGALYPWRTIDGPECSAYFPAGTAQYHINADIVYALKRYVEATNDVDFLYDYGCEILFETARFWEDLGAYIPLKGNKFCINCVTGPDEYTALVDNNAYTNYMAKMNLEYAYDIANKMKKEVPQKYQKVASKLNLKDEEIVAWKKAADNMYLPYSKELDIIPQDDSFLYKERITVDEIPEDQFPLLLHWHYLNIYRYQICKQPDVLLLMFLQREKFTKDELKKNYDYYEPITTHDSSLSPAIFSILANEIGYTDKAYKYFMMTARMDLDDYNDNVKDGIHAASMAGTWSAVVNGFGGMRVYTNELHFEPRLPKEWNLLSFNVRYKGRKINVKLTKENVVFALLEGEPIEIYYFDKKILLEKGEIK

Molecular target: T1, trehalose phosphorylase
Assay: Substrate specificity for saccharide-hydrolyzing reaction by trehalose phosphorylase (TLC)
Type: biochemical, Thermoanaerobium brockii
Design: key: +: Hydrolyzed by the action of the present trehalose phosphorylase.; -: Not hydrolyzed by the action of the present trehalose phosphorylase
Conditions: saccharide 2 w/v %, 10 units/g saccharide purified enzyme, 5 mM disodium hydrogenphosphate, 60° C., pH 7.0, 24 hours
Protocol: An aqueous solution of a saccharide selected from D-glucose, maltose, sucrose, lactose, trehalose, neotrehalose, cellobiose, melibiose, kojibiose, isomaltose, sophorose, gentibiose, nigerose, laminaribiose, maltopentaose, and 4-O-α-D-glucosyltrehalose was mixed with 10 units/g saccharide, d.s.b., of a purified trehalose phosphorylase obtained by the method in Experiment 2, and incubated in the presence of 5 mM disodium hydrogenphosphate at 60° C. and pH 7.0 for 24 hours. The saccharide concentration of each reaction solution was 2 w/v %. Pre-reaction solutions and post-reaction mixtures were subjected to thin layer chromatography (hereinafter abbreviated as "TLC") using "KIESELGEL 60 (20×20 cm)", an aluminum plate for TLC commercialized by Merck & Co., Inc., Rahway, USA. Samples were developed once at ambient temperature on the plate using 1-butanol/pyridine/water (=7:3:1 by volume) as a developing solvent system, and the plate was sprayed with 20 v/v % sulfuric acid/methanol solution, and heated at 110° C. for about 10 min for coloration. Comparing spots of the solutions and mixtures detected on the plates, it was checked whether the enzyme acted on the saccharides.

Molecule	Decomposition
OC[C@H]1O[C@H](O[C@H]2[C@H](O)[C@@H](CO)OC(O)[C@@H]2O)[C@H](O)[C@@H](O)[C@@H]1O (stereo partly drawn) [Nigerose]	-
OC[C@H]1O[C@@H](O[C@H]2C(O)O[C@H](CO)[C@@H](O)[C@@H]2O)[C@H](O)[C@@H](O)[C@@H]1O (stereo partly drawn) [Sophorose]	-
OC[C@H]1O[C@@](CO)(O[C@H]2O[C@H](CO)[C@@H](O)[C@H](O)[C@H]2O)[C@@H](O)[C@@H]1O [Sucrose]	-
OC[C@H]1O[C@H](O[C@H]2O[C@H](CO)[C@@H](O)[C@H](O)[C@H]2O)[C@H](O)[C@@H](O)[C@@H]1O [Trehalose]	+

Molecular target: T1, trehalose phosphorylase
Assay: Specificity to acceptor in glucosyl-transferring saccharide-forming reaction by trehalose phosphorylase (TLC)
Type: biochemical, Thermoanaerobium brockii
Conditions: used as donor in place of β-D-glucose-1-phosphoric acid
Protocol: An aqueous solution, which dissolved in an equal amount, by dry weight, […], […] obtained by the method in Experiment 2, and enzymatically reacted at 60° C. and pH 7.0 for 24 hours. Similarly as in Experiment 5, the pre-reaction solutions and the post-reaction mixtures were subjected to TLC, followed by coloring the plates. Comparing spots of the samples of the solutions and mixtures detected on the plates, it was judged whether transferred saccharides were formed based on newly detected spots of the post reaction mixtures. By macroscopically observing the coloration degree of the newly detected spots, the yield of the transferred saccharides was relatively evaluated.

Molecule	Formation of glucosyl-transferred saccharide when used as saccharide donor
O=P(O)(O)O[C@H]1O[C@H](CO)[C@@H](O)[C@H](O)[C@H]1O [α-D-glucose-1-phosphoric acid]	No glucosyl-transferred saccharide was obtained

Molecular target: T1, trehalose phosphorylase
Assay: Trehalose phosphorylase activity assay: inhibition and activation by added substances
Type: biochemical, Thermoanaerobium brockii
Conditions: one mM
Protocol: (§1) The present trehalose phosphorylase activity is assayed as follows: Add 0.2 ml of an enzyme solution to 2 ml of 20 mM phosphate buffer (pH 7.0) containing 1.0 w/v % trehalose as a substrate, incubate the solution at 60° C. for 30 min, sample the reaction mixture in an amount of 0.5 ml, and incubate the sample at 100° C. for 10 min to suspend the enzymatic reaction. Add 0.5 ml of D-glucose oxidase/peroxidase reagent to the heated sample, stir the mixture, keep the mixture at 40° C. for 30 min, add 2.5 ml of 5-N hydrochloric acid, stir the resulting mixture, and measure the absorbance of the mixture at a wavelength of 525 nm. One unit of the enzyme activity is defined as the enzyme that forms one […] of D-glucose per one minute. The activity of maltose- and kojibiose-phosphorylases can be assayed similarly as the same assay as indicated above except that the trehalose as a substrate is respectively replaced with maltose and kojibiose.
Influences of temperatures and pHs on the present trehalose phosphorylase activity were studied in accordance with the assay for enzyme activity. To study the influence of temperatures, the enzyme was reacted at temperatures of about 50-85° C. in place of 60° C. as used in the enzyme assay. In the case of studying the influence of pHs, the enzyme was reacted at pHs of about 4-9 in place of the buffer's pH as used in the assay for the enzyme activity. In both cases, the enzymatic reactions were suspended similarly as in the enzyme assay, followed by quantifying the formed glucose. […] The thermal stability of the enzyme was determined by incubating the enzyme dissolved in 10 mM phosphate buffer (pH 7.0) at a temperature of about 40-85° C. for one hour, cooling the incubated enzyme, and assaying for the residual enzyme activity according to the enzyme assay. The pH stability of the enzyme was determined by dissolving the enzyme in buffers with different pHs of about 4-10, keeping each enzyme solution at 4° C. for 24 hours, adjusting each solution to give a pH of 7.0, and assaying for the residual enzyme activity according to the enzyme assay. […] The enzyme activity was inhibited by one mM Cu^++, Pb^++, Zn^++, Hg^++, Mg^++, or Mn^++.

Molecule	Activation and stabilization of the enzyme	Enzyme activity inhibition
O[C@H](CS)[C@H](O)CS (racemic) [dithiothreitol]	Activated	
[Cu+2] [Cu^++]		inhibited
[Hg+2] [Hg^++]		inhibited
[Mg+2] [Mg^++]		inhibited
[Mn+2] [Mn^++]		inhibited
[Pb+2] [Pb^++]		inhibited
[Zn+2] [Zn^++]		inhibited

System: not listed separately
Assay: Trehalose phosphorylase activity assay (specific activity, influence of temperature and pH)
Type: biochemical
Conditions: incubated at 60° C. for 30 min
Protocol: as §1
The yield of the purified enzyme specimen, obtained by the above purification steps, was about 25% with respect to the enzyme activity of the supernatant of the disrupted cell suspension. […] Protein was quantified according to the Lowry method using calf serum albumin as a standard protein.
(§2) Influences of temperatures and pHs on the present trehalose phosphorylase activity were studied in accordance with the assay for enzyme activity. […] In both cases, the enzymatic reactions were suspended similarly as in the enzyme assay, followed by quantifying the formed glucose. […] The thermal stability of the enzyme was determined by incubating the enzyme dissolved in 10 mM phosphate buffer (pH 7.0) at a temperature of about 40-85° C. for one hour, cooling the incubated enzyme, and assaying for the residual enzyme activity according to the enzyme assay. The pH stability of the enzyme was determined by dissolving the enzyme in buffers with different pHs of about 4-10, keeping each enzyme solution at 4° C. for 24 hours, adjusting each solution to give a pH of 7.0, and assaying for the residual enzyme activity according to the enzyme assay. […]

Molecule	Optimum pH
B1	7.0-7.5

Same assay, conditions: incubated at pH 7.0 for 30 min

Molecule	Optimum temperature
B1	about 70 °C

Same assay, conditions: purified enzyme specimen; trehalose substrate, 60° C., pH 7.0

Molecule	Specific activity [units/mg protein]
B1	78.2

System: not listed separately
Assay: Thermal and pH stability of trehalose phosphorylase (residual enzyme activity)
Type: physicochemical
Conditions: 10 mM phosphate buffer pH 7.0, one hour
Protocol: as §1, with “The activity of maltose- and kojibiose-phosphorylases can be assayed similarly as the same assay as indicated above except that the trehalose as a substrate is respectively replaced with maltose and kojibiose.” left out
as §2, with “assay.” for “assay. The pH stability of the enzyme was determined by dissolving the enzyme in buffers with different pHs of about 4-10, keeping each enzyme solution at 4° C. for 24 hours, adjusting each solution to give a pH of 7.0, and assaying for the residual enzyme activity according to the enzyme assay.”

Molecule	Thermal stability
B1	up to 60 °C

Same assay, conditions: 4° C. for 24 hours

Molecule	pH stability
B1	6.0-9.0

System: not listed separately
Assay: Isoelectric point by polyacrylamide gel electrophoresis using ampholyte
Type: physicochemical
Conditions: electrophoresis using 2 w/v % ampholyte

Molecule	Isoelectric point (pI)
B1	5.4±0.5

From patent US5993889A, “Trehalose phosphorylase, its preparation and use” (Kabushiki Kaisha Hayashibara Seibutsu Kagaku Kenkyujo, priority 1996, dated 1999)
